Reference: ChEMBL document CHEMBL1909046, “DrugMatrix in vitro pharmacology data”

Tests used:
[1] = molecular target: T1, Alpha-1A adrenergic receptor (Rattus norvegicus, UniProt P43140); assay: DRUGMATRIX: Alpha-1A adrenergic receptor radioligand binding (ligand: prazosin); assay type: cell membranes, Wistar, Submaxillary gland, Membrane; settings: Not Active = under 50% inhibition at 10 µM
T1 sequence (P43140 whole entry): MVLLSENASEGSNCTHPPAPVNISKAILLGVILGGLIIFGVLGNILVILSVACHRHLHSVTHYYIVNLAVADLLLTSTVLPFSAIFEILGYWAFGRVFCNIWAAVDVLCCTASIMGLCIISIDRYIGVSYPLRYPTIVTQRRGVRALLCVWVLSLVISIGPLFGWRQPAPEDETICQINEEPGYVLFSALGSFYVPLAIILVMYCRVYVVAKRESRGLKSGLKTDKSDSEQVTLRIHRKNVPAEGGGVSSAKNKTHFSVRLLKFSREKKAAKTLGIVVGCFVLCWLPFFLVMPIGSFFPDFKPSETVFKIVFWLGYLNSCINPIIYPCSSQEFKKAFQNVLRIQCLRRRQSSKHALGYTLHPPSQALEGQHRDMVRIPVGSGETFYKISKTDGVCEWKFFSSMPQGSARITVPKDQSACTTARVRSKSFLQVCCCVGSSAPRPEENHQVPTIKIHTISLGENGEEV

[2] = molecular target: 5-hydroxytryptamine receptor 2B (Homo sapiens, UniProt P41595); assay type: cell membranes, CHO-K1, Membrane; settings: cho-k1; also: in other assays of this panel Not Active means under 50% inhibition at 10 µM
5-hydroxytryptamine receptor 2B, sequence (P41595 whole entry): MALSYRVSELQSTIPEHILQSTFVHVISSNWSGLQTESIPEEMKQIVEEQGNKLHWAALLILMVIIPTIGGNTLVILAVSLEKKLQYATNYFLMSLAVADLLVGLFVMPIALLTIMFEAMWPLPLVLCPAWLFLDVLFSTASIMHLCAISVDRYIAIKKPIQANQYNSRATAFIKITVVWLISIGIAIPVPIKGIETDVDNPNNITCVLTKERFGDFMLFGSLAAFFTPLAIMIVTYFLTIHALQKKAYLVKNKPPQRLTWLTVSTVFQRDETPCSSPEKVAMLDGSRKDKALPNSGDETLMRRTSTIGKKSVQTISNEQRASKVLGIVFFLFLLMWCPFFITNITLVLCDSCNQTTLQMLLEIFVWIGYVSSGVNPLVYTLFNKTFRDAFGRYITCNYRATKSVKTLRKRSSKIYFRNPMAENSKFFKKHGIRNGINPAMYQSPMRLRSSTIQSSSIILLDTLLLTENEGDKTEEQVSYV

[3] = molecular target: Beta-1 adrenergic receptor (Homo sapiens, UniProt P08588); assay: DRUGMATRIX: Adrenergic beta1 radioligand binding (ligand: [125I] Cyanopindolol); assay type: cell membranes, CHO-K1, Membrane; settings: cho-k1; Not Active = under 50% inhibition at 10 µM
Beta-1 adrenergic receptor, sequence (P08588 whole entry): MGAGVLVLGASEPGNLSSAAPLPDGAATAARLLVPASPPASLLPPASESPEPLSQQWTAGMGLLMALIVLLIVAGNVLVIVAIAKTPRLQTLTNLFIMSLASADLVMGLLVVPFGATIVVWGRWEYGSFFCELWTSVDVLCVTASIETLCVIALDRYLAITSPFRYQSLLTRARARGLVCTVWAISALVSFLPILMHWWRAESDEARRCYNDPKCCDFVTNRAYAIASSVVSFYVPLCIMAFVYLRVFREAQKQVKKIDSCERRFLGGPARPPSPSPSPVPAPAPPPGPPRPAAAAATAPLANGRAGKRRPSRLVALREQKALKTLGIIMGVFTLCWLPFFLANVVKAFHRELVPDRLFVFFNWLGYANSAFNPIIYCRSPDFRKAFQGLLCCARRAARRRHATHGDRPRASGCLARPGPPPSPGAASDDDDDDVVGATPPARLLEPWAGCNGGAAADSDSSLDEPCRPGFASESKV

Glycine receptor = Glycine receptor (Rattus norvegicus, UniProt P22771+P24524+P07727+P20781); assay type: cell membranes, Wistar, Spinal cord, Membrane; also: in other assays of this panel Not Active means under 50% inhibition at 10 µM
[4] = molecular target: Receptor tyrosine-protein kinase erbB-2 (Homo sapiens, UniProt P04626); assay: biochemical; assay type: cell-based, Insect cells; settings: insect cells;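 also: inhibition of HER2 kinase enzyme activity, measured with Poly(Glu:Tyr) as the phosphorylation substrate; in other assays of this panel Not Active means under 50% inhibition at 10 µM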
Receptor tyrosine-protein kinase erbB-2, sequence (P04626 whole entry): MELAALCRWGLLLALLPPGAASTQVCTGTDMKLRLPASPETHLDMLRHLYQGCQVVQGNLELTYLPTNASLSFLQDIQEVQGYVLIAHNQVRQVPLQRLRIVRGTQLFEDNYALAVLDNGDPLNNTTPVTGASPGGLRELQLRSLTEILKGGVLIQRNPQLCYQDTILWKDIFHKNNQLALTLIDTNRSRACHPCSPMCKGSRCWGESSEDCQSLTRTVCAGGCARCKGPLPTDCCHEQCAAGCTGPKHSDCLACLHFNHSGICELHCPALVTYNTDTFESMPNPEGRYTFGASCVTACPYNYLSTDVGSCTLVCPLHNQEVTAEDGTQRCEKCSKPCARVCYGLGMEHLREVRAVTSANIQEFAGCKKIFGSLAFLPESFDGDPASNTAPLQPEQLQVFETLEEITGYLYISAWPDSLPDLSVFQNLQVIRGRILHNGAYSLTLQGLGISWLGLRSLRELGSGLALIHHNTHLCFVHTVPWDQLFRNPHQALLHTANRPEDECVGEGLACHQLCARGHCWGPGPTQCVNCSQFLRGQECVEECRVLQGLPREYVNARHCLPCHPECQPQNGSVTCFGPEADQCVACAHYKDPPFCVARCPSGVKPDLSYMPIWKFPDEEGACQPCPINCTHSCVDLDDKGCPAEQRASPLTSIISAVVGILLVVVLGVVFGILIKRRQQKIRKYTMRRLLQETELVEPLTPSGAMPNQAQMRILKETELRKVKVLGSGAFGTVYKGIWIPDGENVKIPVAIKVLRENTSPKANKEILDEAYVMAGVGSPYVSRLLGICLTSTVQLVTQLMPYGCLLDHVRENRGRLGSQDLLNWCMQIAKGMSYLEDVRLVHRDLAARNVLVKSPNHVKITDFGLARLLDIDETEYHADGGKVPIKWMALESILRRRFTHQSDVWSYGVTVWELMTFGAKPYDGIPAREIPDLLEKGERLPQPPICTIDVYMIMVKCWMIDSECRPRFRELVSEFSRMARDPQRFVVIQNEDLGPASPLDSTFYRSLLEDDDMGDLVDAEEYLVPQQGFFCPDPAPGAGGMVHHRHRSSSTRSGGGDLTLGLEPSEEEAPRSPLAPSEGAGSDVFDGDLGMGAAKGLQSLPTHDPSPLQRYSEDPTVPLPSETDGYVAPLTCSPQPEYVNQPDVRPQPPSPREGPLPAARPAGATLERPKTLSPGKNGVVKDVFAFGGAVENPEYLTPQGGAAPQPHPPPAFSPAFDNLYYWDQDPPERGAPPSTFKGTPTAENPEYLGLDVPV

[5] = molecular target: T2, Nitric oxide synthase, inducible (Mus musculus, UniProt P29477); design: species or system Escherichia coli;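 also: inhibition of iNOS enzyme activity measured with L-arginine as substrate; in other assays of this panel Not Active means under 50% inhibition at 10 µM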
T2 sequence (P29477 whole entry): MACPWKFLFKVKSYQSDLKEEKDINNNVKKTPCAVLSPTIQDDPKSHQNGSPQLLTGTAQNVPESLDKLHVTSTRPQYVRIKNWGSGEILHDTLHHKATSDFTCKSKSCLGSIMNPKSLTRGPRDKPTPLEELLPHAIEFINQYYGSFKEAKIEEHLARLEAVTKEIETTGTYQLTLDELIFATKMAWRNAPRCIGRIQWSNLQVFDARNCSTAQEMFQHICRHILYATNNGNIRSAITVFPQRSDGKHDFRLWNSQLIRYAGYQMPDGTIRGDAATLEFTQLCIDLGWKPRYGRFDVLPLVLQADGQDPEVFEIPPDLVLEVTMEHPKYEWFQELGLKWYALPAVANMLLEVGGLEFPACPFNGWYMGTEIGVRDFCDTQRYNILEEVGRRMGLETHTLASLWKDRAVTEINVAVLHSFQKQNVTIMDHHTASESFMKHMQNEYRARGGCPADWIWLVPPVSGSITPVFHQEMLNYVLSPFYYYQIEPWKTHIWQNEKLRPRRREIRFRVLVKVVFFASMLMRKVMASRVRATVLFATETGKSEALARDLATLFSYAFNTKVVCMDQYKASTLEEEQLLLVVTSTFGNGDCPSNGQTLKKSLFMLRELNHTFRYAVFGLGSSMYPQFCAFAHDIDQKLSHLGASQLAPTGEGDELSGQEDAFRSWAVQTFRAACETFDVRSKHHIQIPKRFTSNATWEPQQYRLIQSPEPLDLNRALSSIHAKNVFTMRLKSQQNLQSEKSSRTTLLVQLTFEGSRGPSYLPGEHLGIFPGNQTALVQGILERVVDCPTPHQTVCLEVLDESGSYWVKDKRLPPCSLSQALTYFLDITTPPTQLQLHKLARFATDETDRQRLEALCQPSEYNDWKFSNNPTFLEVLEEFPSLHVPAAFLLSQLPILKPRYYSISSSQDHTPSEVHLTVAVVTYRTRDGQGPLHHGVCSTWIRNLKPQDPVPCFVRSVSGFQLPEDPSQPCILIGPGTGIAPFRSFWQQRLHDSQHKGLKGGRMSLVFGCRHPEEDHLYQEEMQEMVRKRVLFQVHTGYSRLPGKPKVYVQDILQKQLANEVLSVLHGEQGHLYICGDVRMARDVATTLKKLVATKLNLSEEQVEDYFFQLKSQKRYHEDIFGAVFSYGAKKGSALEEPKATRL

[6] = molecular target: Prostaglandin G/H synthase 1 (Homo sapiens, UniProt P23219); assay: biochemical; assay type: tissue-based, Platelet; settings: platelet
Prostaglandin G/H synthase 1, sequence (P23219 whole entry): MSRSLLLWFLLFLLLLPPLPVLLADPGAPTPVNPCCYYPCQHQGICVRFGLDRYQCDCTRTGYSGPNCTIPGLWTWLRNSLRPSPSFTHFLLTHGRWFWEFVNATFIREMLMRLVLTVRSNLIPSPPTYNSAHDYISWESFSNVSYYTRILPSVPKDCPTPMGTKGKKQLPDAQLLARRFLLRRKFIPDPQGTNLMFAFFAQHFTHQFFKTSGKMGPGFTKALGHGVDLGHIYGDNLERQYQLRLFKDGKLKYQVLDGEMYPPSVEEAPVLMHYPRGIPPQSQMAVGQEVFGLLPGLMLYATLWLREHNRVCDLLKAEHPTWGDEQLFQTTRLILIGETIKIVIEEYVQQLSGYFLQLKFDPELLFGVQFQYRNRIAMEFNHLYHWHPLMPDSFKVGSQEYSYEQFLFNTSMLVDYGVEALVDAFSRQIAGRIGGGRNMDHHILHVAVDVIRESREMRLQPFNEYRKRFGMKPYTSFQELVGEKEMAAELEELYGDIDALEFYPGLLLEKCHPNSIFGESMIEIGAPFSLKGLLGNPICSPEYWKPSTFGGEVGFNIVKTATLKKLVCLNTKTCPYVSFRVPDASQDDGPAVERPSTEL

[7] = molecular target: Epidermal growth factor receptor (Homo sapiens, UniProt P00533); assay: DRUGMATRIX: Protein Tyrosine Kinase, EGF Receptor enzyme inhibition (substrate: Poly(Glu:Tyr)); assay type: cell-based, Insect cells; settings: insect cells; Not Active = under 50% inhibition at 10 µM
Epidermal growth factor receptor, sequence (P00533 whole entry): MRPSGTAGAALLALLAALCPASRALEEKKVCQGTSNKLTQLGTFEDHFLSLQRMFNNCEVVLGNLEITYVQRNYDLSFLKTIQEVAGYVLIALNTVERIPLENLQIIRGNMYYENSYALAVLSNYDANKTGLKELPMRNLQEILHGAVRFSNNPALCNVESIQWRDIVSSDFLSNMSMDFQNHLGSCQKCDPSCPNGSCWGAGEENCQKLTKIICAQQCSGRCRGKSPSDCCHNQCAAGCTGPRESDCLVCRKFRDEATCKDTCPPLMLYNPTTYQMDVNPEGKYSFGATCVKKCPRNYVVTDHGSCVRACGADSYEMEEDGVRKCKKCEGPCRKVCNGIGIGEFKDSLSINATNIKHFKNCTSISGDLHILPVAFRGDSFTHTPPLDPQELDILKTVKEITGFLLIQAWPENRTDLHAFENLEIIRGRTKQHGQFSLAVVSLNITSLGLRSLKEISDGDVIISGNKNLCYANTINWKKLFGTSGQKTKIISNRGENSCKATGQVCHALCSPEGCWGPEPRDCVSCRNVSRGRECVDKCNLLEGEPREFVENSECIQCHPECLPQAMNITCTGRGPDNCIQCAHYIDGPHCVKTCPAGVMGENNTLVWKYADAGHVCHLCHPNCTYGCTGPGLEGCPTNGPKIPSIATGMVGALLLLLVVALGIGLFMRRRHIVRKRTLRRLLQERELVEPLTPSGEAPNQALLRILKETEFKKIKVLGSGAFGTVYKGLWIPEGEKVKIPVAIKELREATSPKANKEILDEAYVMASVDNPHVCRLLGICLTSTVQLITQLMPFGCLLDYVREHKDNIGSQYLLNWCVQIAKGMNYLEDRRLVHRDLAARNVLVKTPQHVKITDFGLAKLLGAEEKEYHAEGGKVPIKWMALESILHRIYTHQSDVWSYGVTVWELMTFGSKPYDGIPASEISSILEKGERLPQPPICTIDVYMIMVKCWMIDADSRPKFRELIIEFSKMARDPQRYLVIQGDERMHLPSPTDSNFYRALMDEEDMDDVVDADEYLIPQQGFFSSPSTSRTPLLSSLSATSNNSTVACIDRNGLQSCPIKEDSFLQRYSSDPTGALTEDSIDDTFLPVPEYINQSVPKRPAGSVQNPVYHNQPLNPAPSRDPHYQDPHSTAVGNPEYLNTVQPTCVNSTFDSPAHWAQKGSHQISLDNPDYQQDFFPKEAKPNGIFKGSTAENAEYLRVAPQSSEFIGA

[8] = molecular target: Delta-type opioid receptor (Homo sapiens, UniProt P41143); assay type: cell membranes, HEK293, Membrane; settings: hek293; also: in other assays of this panel Not Active means under 50% inhibition at 10 µM
Delta-type opioid receptor, sequence (P41143 whole entry): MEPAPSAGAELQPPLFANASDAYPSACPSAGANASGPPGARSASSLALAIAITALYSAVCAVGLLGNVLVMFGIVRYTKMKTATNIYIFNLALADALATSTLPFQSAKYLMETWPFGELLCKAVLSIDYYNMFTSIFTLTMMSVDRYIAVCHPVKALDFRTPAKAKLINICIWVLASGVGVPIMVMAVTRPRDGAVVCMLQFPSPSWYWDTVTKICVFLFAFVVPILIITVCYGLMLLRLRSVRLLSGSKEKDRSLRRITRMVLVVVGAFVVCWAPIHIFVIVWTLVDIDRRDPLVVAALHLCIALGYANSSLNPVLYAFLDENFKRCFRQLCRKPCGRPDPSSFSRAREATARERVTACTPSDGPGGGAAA

[9] = DRUGMATRIX: Interleukin IL-1 radioligand binding (ligand: [125I] interleukin 1beta); assay type: cell membranes, Membrane; settings: nih3t3; Not Active = under 50% inhibition at 10 µM
Interstitial collagenase = molecular target: T3, Interstitial collagenase (Homo sapiens, UniProt P03956); assay type: tissue-based, Rheumatoid synovial fibroblasts
T3 sequence (P03956 whole entry): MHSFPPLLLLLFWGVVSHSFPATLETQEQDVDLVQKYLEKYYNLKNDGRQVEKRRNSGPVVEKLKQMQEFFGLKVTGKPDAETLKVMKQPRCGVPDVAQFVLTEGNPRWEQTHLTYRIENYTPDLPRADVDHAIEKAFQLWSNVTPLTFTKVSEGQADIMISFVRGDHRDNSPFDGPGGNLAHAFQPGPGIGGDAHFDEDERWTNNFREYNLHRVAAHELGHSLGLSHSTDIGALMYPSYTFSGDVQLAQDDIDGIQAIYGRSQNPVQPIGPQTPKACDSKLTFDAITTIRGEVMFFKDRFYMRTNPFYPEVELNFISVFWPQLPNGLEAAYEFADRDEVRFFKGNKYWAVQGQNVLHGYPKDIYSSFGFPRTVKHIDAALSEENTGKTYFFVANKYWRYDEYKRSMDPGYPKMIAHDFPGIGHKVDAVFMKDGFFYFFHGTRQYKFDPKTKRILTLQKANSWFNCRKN

CC=CC(=O)N(CC)c1ccccc1C
Not Active: IC50 [1] | IC50 [2] | IC50 [3] | IC50 (Glycine receptor) | IC50 [4] | IC50 [5] | IC50 [6] | IC50 [7] | IC50 [8] | IC50 [9] | Ki [9] | IC50 (Interstitial collagenase)

C=C1C(=O)O[C@@H]2C3O[C@]3(C)CC/C=C(\C)CC[C@@H]12 (some centres not stated)
Not Active: IC50 [1] | IC50 [2] | IC50 [3] | IC50 (Glycine receptor) | IC50 [4] | IC50 [5] | IC50 [6] | IC50 [7] | IC50 [8] | IC50 [9] | Ki [9] | IC50 (Interstitial collagenase)

CCCCCCCCCc1ccc(O)cc1 [4-NONYLPHENOL]
Not Active: IC50 [1] | IC50 [2] | IC50 [3] | IC50 (Glycine receptor) | IC50 [4] | IC50 [5] | IC50 [6] | IC50 [7] | IC50 [8] | IC50 [9] | Ki [9] | IC50 (Interstitial collagenase)

COc1ccc2c(c1)c(CC(=O)OCC(=O)O)c(C)n2C(=O)c1ccc(Cl)cc1 [ACEMETACIN]
Not Active: IC50 [1] | IC50 [2] | IC50 [3] | IC50 (Glycine receptor) | IC50 [4] | IC50 [5] | IC50 [6] | IC50 [7] | IC50 [8] | IC50 [9] | Ki [9] | IC50 (Interstitial collagenase)

CCCSc1ccc2nc(NC(=O)OC)[nH]c2c1 [ALBENDAZOLE]
Not Active: IC50 [1] | IC50 [2] | IC50 [3] | IC50 (Glycine receptor) | IC50 [4] | IC50 [5] | IC50 [6] | IC50 [7] | IC50 [8] | IC50 [9] | Ki [9] | IC50 (Interstitial collagenase)

O=c1cc(-c2ccccc2)oc2c1ccc1ccccc12 [ALPHA-NAPHTHOFLAVONE]
Not Active: IC50 [1] | IC50 [2] | IC50 [3] | IC50 (Glycine receptor) | IC50 [4] | IC50 [5] | IC50 [6] | IC50 [7] | IC50 [8] | IC50 [9] | Ki [9] | IC50 (Interstitial collagenase)
